Measured values as given in patent publication US20260152751A1, “INTERFERING RNA FOR INHIBITING JAK1 GENE EXPRESSION AND USE THEREOF” (Jenkem Technology Co., Ltd. (BEIJING), priority 2024, published 2026).
[Ψ] = pseudouridine; d = 2'-deoxy (DNA); r = 2'-OH (RNA)

Assays:
JAK1 gene [1] = assay: qPCR of JAK1 expression in HaCaT cells transfected with modified siJAK1; type: cell-based, human; conditions: siRNA 50 nM, 48 h after transfection, JAK1 by qPCR, siNC = 100.00
Procedure: (§1) One day prior to transfection, 293T cells were seeded into a 24-well cell culture plate at 1×10^5 cells/well, and the culture medium was 500 μL of DMEM containing 10% FBS and 1% penicillin-streptomycin. Three replicate wells were made for each group. The culture plate was placed in an incubator with 5% CO2 at 37° C. for 24 h to allow the cells to adhere to the wall. On the day of transfection, the culture medium was changed to 450 μL of DMEM culture medium without antibiotics (containing 10% FBS). The siRNAs were diluted with 25 μL of Opti-MEM culture medium, and the control group was siNC at the same concentration; a Lipofectamine™RNAiMAX transfection reagent (Lip) was diluted with another 25 μL of Opti-MEM culture medium, and the mixture was left to stand at room temperature for 5 min; and the two dilutions were uniformly mixed and left to stand at room temperature for 5 min. 50 μL of the mixed solution described above was added to each well to obtain a final transfection volume of 500 μL, and the working concentration of the siRNA was 50 nM. After the cells were further cultured in an incubator with 5% CO2 at 37° C. for 48 h, the total RNA of the cells was extracted.
(§2) 1) The RNA was reverse-transcribed into a cDNA template using the All-in-One First-Strand Synthesis MasterMix (LABLEAD, Cat. No.: F0202) kit. The reaction system was established according to Table 2, where all components were mixed uniformly and centrifuged to collect the liquid at the bottom of a tube, and the PCR program was run according to the settings of 37° C. for 2 min, 55° C. for 15 min, and 85° C. for 5 min, thereby giving the cDNA template.
(§3) 2) The gene expression level was detected using the Taq SYBR® Green qPCR Premix (LABLEAD, Cat. No.: R0202) kit, and the qPCR system was established according to Table 3. All components were mixed uniformly and centrifuged to collect the liquid at the bottom of a tube, and the PCR program was run according to the following settings: • Step1: 95° C. 30 s; • Step2: 95° C. 10 s; • Step3: 60° C. 30 s+Plate Read; • Step4: Go to Step2, 40 times; • Step5: Melt Curve 65 to 95° C., increment 0.5° C., for 5 s+Plate Read.
(§4) GAPDH was used as an endogenous reference to detect the relative expression level of JAK1 gene, and the sequences of the primers used are as follows: […]
According to the method described in Example 2, human keratinocyte HaCaT cells were transfected with the modified siJAK1 at an siRNA working concentration of 50 nM. The expression level of JAK1 was detected by qPCR 48 h after the transfection. The controls included siNC and unmodified siJAK1 at the same concentration.

JAK1 gene [2] = assay: siRNA screening: qPCR of JAK1 relative expression in transfected 293T cells; type: cell-based, human; conditions: siRNA 50 nM, 48 h after transfection, GAPDH reference, siNC = 100.00
Procedure: as §1
RNA was extracted using Eastep™ Super total RNA extraction kit, with the detailed procedures as follows:
1) 300 μL of RNA lysis solution and 300 μL of RNA diluent were added into each well of the 24-well cell culture plate, and the mixture was uniformly mixed and subsequently transferred to a 1.5 mL centrifuge tube. The mixture was centrifuged at 14000 g for 10 min, and the supernatant was carefully pipetted into a new 1.5 mL centrifuge tube.
2) A 0.5-fold volume of absolute ethanol was added, and the mixture was uniformly mixed by allowing the tube to be repeatedly upside down 15-20 times. Subsequently, the mixture was transferred to a centrifuge column and centrifuged at 12000 g for 1 min. The filtrate was discarded.
3) 600 μL of RNA wash buffer was added, and the mixture was centrifuged at 12000 g for 1 min. The filtrate was discarded.
4) 50 μL of DNase I incubation buffer was added, followed by DNA digestion at room temperature for 15 min.
5) 600 μL of RNA wash buffer was added, the mixture was centrifuged at 12000 g for 1 min, and the filtrate was discarded. This procedure was repeated once. Subsequently, the mixture was centrifuged at 14000 g for 2 min to remove the residual RNA wash buffer, and then the centrifuge column was placed in a collection tube.
6) A proper amount of RNase-free H2O was added, and the mixture was left to stand for 15 min at room temperature, followed by centrifugation at 14000 g for 1 min. The RNA quality and concentration were detected using NanoDrop™. The extracted RNA was incubated at 70° C. for 5 min and immediately placed in an ice bath for 5 min for later use.
as §2, §3, §4

[3] = test system: IFN-γ-induced STAT1 phosphorylation; assay: Western blot of IFN-γ-induced STAT1 phosphorylation in L929 cells; type: cell-based, mouse; conditions: siRNA 50 nM, 48 h, IFN-γ 100 ng/mL 30 min, compared to siNC in Group 3, FIG. 17
Procedure: Mouse fibroblast L929 cells were seeded into a 6-well cell culture plate at 1×10^5 cells/well, and the culture medium was 2 mL of DMEM containing 10% FBS and 1% penicillin-streptomycin.
The cells were then harvested, and the total cellular proteins were extracted to detect the levels of phosphorylated STAT1 by Western blot.
1) The cells were lysed in an appropriate volume of pre-chilled RIPA lysis solution (supplemented with 1 mM PMSF, R1090, LABLEAD prior to use; containing protease and phosphatase inhibitors) for 3-5 min. The lysates were centrifuged at 14000 g at 4° C. for 5 min. The supernatant was carefully pipetted into a new 1.5 mL centrifuge tube. Protein concentrations were measured using the BCA method (PC0020, Solarbio). The samples were mixed with a loading buffer and incubated in a water bath kettle at 95° C. for 10 min.
2) The protein samples were separated by electrophoresis on 4-12% 12-well gradient gels (P41212, LABLEAD) using compatible electrophoresis buffer. […]
4) The PVDF membrane was trimmed based on the molecular weight of the protein and the marker, and blocked with 5% skim milk in TBST at room temperature for 1 h. […] After the membrane was washed again, chemiluminescent substrate (E1050, E1080, LABLEAD) was added, and signals were captured using the Bio-Red imaging system (ChemiDoc™ XRS+Imager) and analyzed using the accompanying software. […]

Substance | Relative expression level, Mean value (Mean) (JAK1 gene [1]) | Relative expression level of JAK1, Mean value (Mean) (JAK1 gene [2]) | Inhibition of IFN-γ-induced STAT1 phosphorylation level by modified siJAK1 (Western blot) [3]
siJAK1-826-m4: pseudouridine-modified siJAK1-826; sense strand SEQ ID NO: 49, antisense strand SEQ ID NO: 53 (sense GGCAUGGAACCAACGACAAUU; antisense UUGUCGUUGGUUCCAUGCCTT; sense: sugars from the 5' end r19 d2, [Ψ] at 5, backbone and T or U not given here; antisense: sugars from the 5' end r19 d2, [Ψ] at 1, 2, 4, 7, 8, 11, 12, 16, backbone not given here) | 13.55 | – | –
siJAK1-826: siRNA targeting JAK1; sense strand SEQ ID NO: 16 dTdT, antisense strand SEQ ID NO: 30 dTdT (sense GGCAUGGAACCAACGACAA; antisense UUGUCGUUGGUUCCAUGCC; listed as RNA, chemistry not fully specified) | 13.33 | 14.18 | –
siJAK1-3283-m10: pseudouridine-modified siJAK1-3283; sense strand SEQ ID NO: 50, antisense strand SEQ ID NO: 54 (sense AGAACAUUGUGAAGUACAATT; antisense UUGUACUUCACAAUGUUCUTT; sense: sugars from the 5' end r19 d2, [Ψ] at 7, 8, 10, 15, backbone not given here; antisense: sugars from the 5' end r19 d2, [Ψ] at 1, 2, 4, 7, 8, 14, 16, 17, 19, backbone not given here) | 15.89 | – | –
siJAK1-3283-m11: 2′-OMe and 2′-F modified siJAK1-3283; sense strand SEQ ID NO: 51, antisense strand SEQ ID NO: 55 (sense AGAACAUUGUGAAGUACAAUU; antisense UUGUACUUCACAAUGUUCUUU; 2'-OMe and 2'-F modifications; modified_base 20..21 OTHER; thymine; modified_base 1..2 OTHER; 2'-O-methyl; modified_base 3 OTHER; 2'-fluoro; modified_base 4 OTHER; modified_base 5 OTHER; modified_base 6 OTHER; modified_base 7 OTHER; modified_base 8 OTHER; modified_base 9..11 OTHER; modified_base 12 OTHER; modified_base 13 OTHER; modi; modified_base 1..3 OTHER; modified_base 7) | 18.37 | – | superior inhibitory effects
siJAK1-3283: siRNA targeting JAK1; sense strand SEQ ID NO: 20 dTdT, antisense strand SEQ ID NO: 34 dTdT (sense AGAACAUUGUGAAGUACAA; antisense UUGUACUUCACAAUGUUCU; listed as RNA, chemistry not fully specified) | 14.73 | 16.41 | –
siJAK1-5034: siRNA targeting JAK1; sense strand SEQ ID NO: 28, antisense strand SEQ ID NO: 42 (sense GAACGAUUACGGUCUUUAUGA; antisense AUAAAGACCGUAAUCGUUCAC; listed as RNA, chemistry not fully specified) | – | 35.89 | –
siNC: non-targeting control sequence; sense strand SEQ ID NO: 43, antisense strand SEQ ID NO: 44 (sense UUCUCCGAACGUGUCACGUTT; antisense ACGUGACACGUUCGGAGAATT; Bought control siRNA with 3' TT overhangs, chemistry not given here, further chemistry not given here) [reference compound] | 100.00 | 100.00 | –
